Patent US20210220331A1, “INHIBITORS OF IRES-MEDIATED PROTEIN SYNTHESIS” (The Regents of the University of California, priority 2016, published 2021)

Legend:
Format in all cases: cell-based
[1] = test system: human cyclin D1 IRES; assay: Dicistronic IRES mRNA reporter assay (firefly luciferase), cyclin D1 IRES; settings: LN229; relative to values obtained with parent compound C11
Protocol: (§1) Western blot and quantitative RT-PCR analyses were performed as previously described (19). For Western blotting, cells or tissues were lysed in RIPA (lysis) buffer containing protease inhibitor cocktail and phosSTOP phosphatase inhibitor cocktail (Roche) and extracts resolved by SDSPAGE. Proteins were transferred to PVDF membranes and incubated with the indicated antibodies. For IRES reporter assays, the indicated mRNA reporters were cotransfected into cells with pSVβ-galactosidase to normalize for transfection efficiency as described previously (16). Cells were harvested 18 h following transfection and Renilla, firefly and β-galactosidase activities determined using the Dual-Glo Luciferase and β-galactosidase assay systems (Promega).
(§2) (B) Schematic diagrams of the dicistronic constructs used in this study. Constructs used are pRF, pRCD1F, which contains the human cyclin D1 IRES, pRmycF, containing the human c-myc IRES, pRp27F, containing the human p27Kip1 IRES and pRECMVF, containing the IRES from encephalomyocarditis virus. (C) Relative Renilla and firefly luciferase activities obtained from LN229 GBM cells transfected with the indicated constructs in the absence or presence of the inhibitor C11. The mean and +SD are shown for three independent experiments. […] (D) RNA-pull down assays utilizing biotinylated cyclin D1 or c-MYC IRES RNAs. Cytoplasmic extracts of LN229 cells treated with C11 (50 nM) as indicated were incubated with biotinylated cyclin D1 or c-MYC IRES RNAs and precipitated with streptavidin-Sepharose beads. Input and bound fractions were analyzed by immunoblotting using hnRNP A1 antibodies. […] RT-PCR measurements were performed in quadruplicate and the mean and +S.D. are shown. […] (F) Top panel, LN229 cells were treated with C11 as indicated and RT-PCR splicing analysis for Max exon 5 performed as described in the Experimental Methods section. Middle panel, LN229 cells treated with C11 (50 nM) as indicated, were lysed and immunoprecipitated using either eIF-4E or control IgG antibodies. Bound CCND1 or c-MYC RNAs were detected via RT-PCR. The mean and +S.D. are shown for three independent experiments. Bottom panel, cyclin D1 and c-MYC protein levels from the indicated GBM cell lines in the absence or presence of C11 at 24 h following treatment. C11 specifically blocks c-Myc IRES-mediated translation initiation by disrupting the ITAF hnRNP A1-IRES interaction.
(§3) Several dicistronic IRES mRNA reporter constructs were utilized, shown in FIG. 1B, in which the indicated IRES sequences were inserted within the intercistronic region. LN229 cells transiently transfected with these constructs were assayed for Renilla and firefly luciferase activities, which are readouts of cap-dependent and IRES-mediated translation initiation, respectively (16). […]

[2] = test system: human c-myc IRES; assay: Dicistronic IRES mRNA reporter assay (firefly luciferase), c-myc IRES; settings: LN229; relative to values obtained with parent compound C11
Protocol: as §1, §2, §3

[3] = test system: LN229 cells; assay: Combination analysis with PP242 (XTT, combination index) in LN229; settings: combination of PP242 and analog, CI=1.0 dose additive, CI<0.5 synergy, CI<0.3 strong synergy
Excerpt: Fold decrease in either PP242-induced cyclin D1 or c-MYC IRES activity in LN229 relative to values obtained with the parent compound C11 are shown for each analog. […] CI=1.0 (dose additive), CI<0.5 (synergy), CI<0.3 (strong synergy).
The structure-activity relationships (SAR) for C11 and related compounds were investigated by synthesizing and testing the analogs listed in Table 1. […] The degree of apoptotic cell death following co-treatment with analog and PP242 was also monitored.

[4] = test system: LN229 cells; assay: Apoptosis via Annexin V staining in LN229; settings: LN229 cotreated with PP242 (50 nM) and analog (100 nM), 24 h

Question: With `COc1ccc(CN2C(=O)C=CC2=O)cc1` [IRES-J002, 1-((4-Methoxyphenyl)methyl)-1H-pyrrole-2,5-dione] as the compound, how does the “Cyclin D1 (decrease): fold decrease in PP242-induced cyclin D1 IRES activity” value (“Cyclin D1 (decrease): fold decrease” below) [1] read?
Answer: 1.60 ± 0.18 fold

Question: And the “c-myc (decrease): fold decrease in PP242-induced c-MYC IRES activity” value (shortened to “c-myc (decrease): fold decrease”) [2]?
Answer: 1.37 ± 0.21 fold

Question: And the “CI ED50, 1:100 (combination index)” value [3]?
Answer: 0.86

Question: What about the “% Apoptosis (100 nM)” value [4] of the same compound?
Answer: 28.6%

Question: What does the source list for `COc1ccc(N2C(=O)C=CC2=O)cc1` [IRES-J008, 1-(4-Methoxyphenyl)-1H-pyrrole-2,5-dione]?
Answer: Cyclin D1 (decrease): fold decrease in PP242-induced cyclin D1 IRES activity [1]: 5.58 ± 0.16 fold; c-myc (decrease): fold decrease in PP242-induced c-MYC IRES activity [2]: 5.92 ± 0.10 fold; CI ED50, 1:100 (combination index) [3]: 0.39; % Apoptosis (100 nM) [4]: 75.7%

Question: What does the source list for `O=C1C=CC(=O)N1Cc1ccccc1` [IRES-J001, 1-Phenylmethyl-1H-pyrrole-2,5-dione]?
Answer: Cyclin D1 (decrease): fold decrease in PP242-induced cyclin D1 IRES activity [1]: 1.49 ± 0.05 fold; c-myc (decrease): fold decrease in PP242-induced c-MYC IRES activity [2]: 1.12 ± 0.13 fold; CI ED50, 1:100 (combination index) [3]: 0.89; % Apoptosis (100 nM) [4]: 30.2%

Question: With `COc1ccc(CN2C(=O)C(C)=C(C)C2=O)c(OC)c1` [IRES-J004, 1-((2,4-Dimethoxyphenyl)methyl)-3,4-dimethyl-1H-pyrrole-2,5-dione] as the compound, how does the “Cyclin D1 (decrease): fold decrease” value [1] read?
Answer: 1.42 ± 0.07 fold

Question: What about the “c-myc (decrease): fold decrease” value [2] of the same compound?
Answer: 1.39 ± 0.11 fold

Question: And the “CI ED50, 1:100 (combination index)” value [3]?
Answer: 0.82

Question: What about the “% Apoptosis (100 nM)” value [4] of the same compound?
Answer: 24.8%

Question: Which results are given for `O=C1C=CC(=O)N1Cc1ccc(F)cc1` [IRES-J003, 1-((4-Fluorophenyl)methyl)-1H-pyrrole-2,5-dione]?
Answer: Cyclin D1 (decrease): fold decrease in PP242-induced cyclin D1 IRES activity [1]: 0.97 ± 0.06 fold; c-myc (decrease): fold decrease in PP242-induced c-MYC IRES activity [2]: 1.19 ± 0.04 fold; CI ED50, 1:100 (combination index) [3]: 0.88; % Apoptosis (100 nM) [4]: 27.1%

Question: For `O=C1c2ccccc2C(=O)N1Nc1ccccc1` [IRES-J011, 2-(Phenylamino)isoindoline-1,3-dione], which “Cyclin D1 (decrease): fold decrease” value [1] is on record?
Answer: 1.91 ± 0.1 fold

Question: And the “c-myc (decrease): fold decrease” value [2]?
Answer: 1.64 ± 0.18 fold

Question: And the “CI ED50, 1:100 (combination index)” value [3]?
Answer: 0.86

Question: And the “% Apoptosis (100 nM)” value [4]?
Answer: 22.8%

Question: `O=C1c2ccccc2C(=O)N1N(c1ccccc1)c1ccccc1` [IRES-J012, 2-(Diphenylamino)isoindoline-1,3-dione] was tested. Which “Cyclin D1 (decrease): fold decrease” value [1] did it give?
Answer: 1.02 ± 0.31 fold

Question: And the “c-myc (decrease): fold decrease” value [2]?
Answer: 1.53 ± 0.17 fold

Question: And the “CI ED50, 1:100 (combination index)” value [3]?
Answer: 0.89

Question: What about the “% Apoptosis (100 nM)” value [4] of the same compound?
Answer: 20.1%

Question: How did the “Cyclin D1 (decrease): fold decrease” value [1] turn out when `COCCCN1C(=O)c2ccccc2C1=O` [IRES-J015, 2-(3-Methoxypropyl)isoindoline-1,3-dione] was run?
Answer: 1.61 ± 0.15 fold

Question: And the “c-myc (decrease): fold decrease” value [2]?
Answer: 1.25 ± 0.24 fold

Question: And the “CI ED50, 1:100 (combination index)” value [3]?
Answer: 0.88

Question: And the “% Apoptosis (100 nM)” value [4]?
Answer: 18.3%

Question: How did the “Cyclin D1 (decrease): fold decrease” value [1] turn out when `CN(C)c1ccc(N2C(=O)c3ccccc3C2=O)cc1` [IRES-J014, 2-(4-(Dimethylamino)phenyl)isoindoline-1,3-dione] was run?
Answer: 1.86 ± 0.27 fold

Question: What about the “c-myc (decrease): fold decrease” value [2] of the same compound?
Answer: 1.33 ± 0.11 fold

Question: And the “CI ED50, 1:100 (combination index)” value [3]?
Answer: 0.84

Question: And the “% Apoptosis (100 nM)” value [4]?
Answer: 20.6%

Question: For `O=C1c2ccccc2C(=O)N1Cc1ccccc1` [IRES-J010, 2-(Phenylmethyl)isoindoline-1,3-dione], which “Cyclin D1 (decrease): fold decrease” value [1] is on record?
Answer: 1.77 ± 0.16 fold

Question: What about the “c-myc (decrease): fold decrease” value [2] of the same compound?
Answer: 1.94 ± 0.25 fold

Question: What about the “CI ED50, 1:100 (combination index)” value [3] of the same compound?
Answer: 0.83

Question: What about the “% Apoptosis (100 nM)” value [4] of the same compound?
Answer: 19.7%

Question: How did the “Cyclin D1 (decrease): fold decrease” value [1] turn out when `COc1ccc(CN2C(=O)C(c3ccccc3)=C(c3ccccc3)C2=O)c(OC)c1` [IRES-J005, 1-((2,4-Dimethoxyphenyl)methyl)-3,4-diphenyl-1H-pyrrole-2,5-dione] was run?
Answer: 1.32 ± 0.14 fold

Question: And the “c-myc (decrease): fold decrease” value [2]?
Answer: 1.28 ± 0.16 fold

Question: And the “CI ED50, 1:100 (combination index)” value [3]?
Answer: 0.91

Question: What about the “% Apoptosis (100 nM)” value [4] of the same compound?
Answer: 23.5%

Question: `COc1ccc(N2C(=O)c3ccccc3C2=O)cc1` [IRES-J013, 2-(4-Methoxyphenyl)isoindoline-1,3-dione] was tested. Which “Cyclin D1 (decrease): fold decrease” value [1] did it give?
Answer: 1.17 ± 0.21 fold

Question: What about the “c-myc (decrease): fold decrease” value [2] of the same compound?
Answer: 1.72 ± 0.06 fold

Question: What about the “CI ED50, 1:100 (combination index)” value [3] of the same compound?
Answer: 0.85

Question: What about the “% Apoptosis (100 nM)” value [4] of the same compound?
Answer: 19.2%

Question: What does the source list for `COc1ccc(CN2C(=O)C=CC2=O)c(OC)c1` [IRES-J000, 1-((2,4-Dimethoxyphenyl)methyl)-1H-pyrrole-2,5-dione]?
Answer: Cyclin D1 (decrease): fold decrease in PP242-induced cyclin D1 IRES activity [1]: 1.05 ± 0.21 fold; c-myc (decrease): fold decrease in PP242-induced c-MYC IRES activity [2]: 1.01 ± 0.03 fold; CI ED50, 1:100 (combination index) [3]: 0.51; % Apoptosis (100 nM) [4]: 25.6%

Question: Which “Cyclin D1 (decrease): fold decrease” value [1] does the source give for `COc1ccc(CN2C(=O)CCC2=O)c(OC)c1` [IRES-J006, 1-((2,4-Dimethoxyphenyl)methyl)pyrrolidine-2,5-dione] here?
Answer: 1.26 ± 0.10 fold

Question: And the “c-myc (decrease): fold decrease” value [2]?
Answer: 1.25 ± 0.19 fold

Question: What about the “CI ED50, 1:100 (combination index)” value [3] of the same compound?
Answer: 0.94

Question: And the “% Apoptosis (100 nM)” value [4]?
Answer: 20.1%
